Measured values: patent US10442804B2, “Compounds for the treatment of hepatitis B virus infection” (Gilead Sciences, Inc., priority 2017, dated 2019)
Where two headings read alike, the source gives them in different places.

Key:
MT-4 cytotoxicity assay = format: cell-based, human; conditions: human
Method: Biological Example 2: MT-4 Cytotoxicity Assay
The MT-4 cell line (HTLV-1 transformed, human T lymphoblastoid cells) was obtained from the NIH AIDS Reagent program (Bethesda, Md.). MT-4 cells were maintained in RPMI-1640 media (Thermo Fisher Scientific, Waltham, Mass.) supplemented with 10% fetal bovine serum, 100 Units/mL penicillin, and 100 μg/mL streptomycin. For the MT-4 cytotoxicity assay, 0.4 μL of serially diluted solutions of certain compounds disclosed herein were added to 40 μL of cell maintenance media in 384-well black, solid bottom plate using a Biomek FX workstation (Beckman Coulter, Brea, Calif.). Two thousand cells in 35 μL were added to each well using a Biotek uFlow Workstation (Biotek, Winooski, Vt.). Each assay plate contained 10 μM puromycin (final concentration) and 0.5% DMSO in RPMI-1640 media as positive and negative controls, respectively. Assay plates were incubated for five days at 37° C. in an incubator set at 5% CO2 and 90% humidity. After five days, 22 μL of Cell Titer Glo reagent (Promega, Madison, Wis.) was added to the assay plates with a Biotek uFlow Workstation. Plates were subsequently placed on an Envision Plate Reader (Perkin Elmer, Waltham, Mass.) for five minutes before the luminescence signal was read. CC50 values were defined as the compound concentration that caused a 50% decrease in luminescence signal, and were calculated by non-linear regression using Pipeline Pilot software by applying a four parameter fit equation (Accelrys, San Diego, Calif.) and are reported in the following Table 1.

[1] = system: HBV-infected NTCP-HepG2 cells, secreted HBsAg; assay: microbe, parasite or virus in culture; format: cell-based, hepatitis B virus (genotype D, AD38-derived); conditions: Hepatitis B virus, 120 h, secreted HBsAg in supernatant after 5 days; geometric mean of minimum four determinations; read-out: NTCP HBsAg EC50
Method: NTCP-HepG2 Antiviral Assay for Secreted HBsAg
HepG2 cells stably expressing sodium-taurocholate cotransporting polypeptide (NTCP-HepG2) were grown in Dulbecco's Modified Eagle Medium (DMEM) without sodium pyruvate (Thermo Fisher Scientific, Waltham, Mass.) supplemented with 10% fetal bovine serum, 2 mM L-glutamine, 1% penicillin/streptomycin, and 0.25 mg/mL G-418. NTCP-HepG2 cells were infected with 4000 genome equivalent per cell of genotype D (AD38-derived) HBV in DMEM without sodium pyruvate (Thermo Fisher Scientific, Waltham, Mass.) supplemented with 2% fetal bovine serum, 2 mM L-glutamine, 1% penicillin/streptomycin, 2.5% DMSO, and 4% PEG 8000 (Promega, Madison, Wis.). After 24-hour incubation, cells were washed three times with OptiMEM (Thermo Fisher Scientific, Waltham, Mass.) and fed with fresh DMEM without sodium pyruvate (Thermo Fisher Scientific, Waltham, Mass.) supplemented with 2% fetal bovine serum, 2 mM L-glutamine, 1% penicillin/streptomycin, and 2.5% DMSO. At 4 days after infection, infected NTCP-HepG2 cells were seeded on 384-well plates pre-coated with collagen at a density of 20000 cells per well containing serially diluted compounds of the present disclosure or DMSO (0.5%) in a final volume of 80 μl of DMEM without sodium pyruvate (Thermo Fisher Scientific, Waltham, Mass.) supplemented with 2% fetal bovine serum, 2 mM L-glutamine, 1% penicillin/streptomycin, and 1% DMSO. After an incubation time of 5 days, cell culture supernatant was collected and measured for HBsAg.
Secreted HBsAg in the supernatant were measured using a multiplex chemiluminescent MSD assay (Meso Scale Discovery, Rockville, Md.) using capture and detection antibody pairs specific for HBsAg. The EC50 values were calculated from the fit of the dose-response curves to a four-parameter equation. All EC50 values represent geometric mean values of a minimum of four determinations.

[2] = five days, Cell Titer Glo luminescence, read-out: MT-4 CC50

Structure (SMILES)	CC50 at 5 days (MT-4 cytotoxicity assay; [2])	EC50 [1]	CC50 at 5 days (MT-4 cytotoxicity assay; MT-4 CC50)
COCCCOc1cc2c(cc1OC(C)(C)C)-c1cc(=O)c(C(=O)O)cn1N1[C@@H]2CCC1(C)C [Example 25, (R)-11-(tert-butoxy)-12-(3-methoxypropoxy)-3,3-dimethyl-8-oxo-2,3,8,13b-tetrahydro-1H-pyrido[2,1-a]pyrrolo[1,2-c]phthalazine-7-carboxylic acid]	> 10000 nM	160 nM	–
COCCCOc1cc2c(cc1OC(C)(C)C)-c1cc(=O)c(C(=O)O)cn1N1[C@H]2CCC1(C)C [Example 26, (S)-11-(tert-butoxy)-12-(3-methoxypropoxy)-3,3-dimethyl-8-oxo-2,3,8,13b-tetrahydro-1H-pyrido[2,1-a]pyrrolo[1,2-c]phthalazine-7-carboxylic acid]	> 10000 nM	> 1000 nM	–
COCCCOc1cc2c(cc1OCC(F)F)-c1cc(=O)c(C(=O)O)cn1N1[C@@H]2CCC1(C)C [Example 27, (R)-11-(2,2-difluoroethoxy)-12-(3-methoxypropoxy)-3,3-dimethyl-8-oxo-2,3,8,13b-tetrahydro-1H-pyrido[2,1-a]pyrrolo[1,2-c]phthalazine-7-carboxylic acid]	> 10000 nM	3.7 nM	–
COCCCOc1cc2c(cc1C1CC1)-c1cc(=O)c(C(=O)O)cn1N1[C@@H]2CCC1(C)C [Example 28, (R)-11-cyclopropyl-12-(3-methoxypropoxy)-3,3-dimethyl-8-oxo-2,3,8,13b-tetrahydro-1H-pyrido[2,1-a]pyrrolo[1,2-c]phthalazine-7-carboxylic acid]	8700 nM	0.78 nM	–
COc1cc2c(cc1OCC1CC(=O)C1)[C@H]1CCC(C)(C)N1n1cc(C(=O)O)c(=O)cc1-2 [Example 37]	> 10000 nM	4 nM	–
COCCCOc1cc2c(cc1Cl)-c1cc(=O)c(C(=O)O)cn1N1CCCC(C)(C)C21 (stereo not drawn) [Example 38, 13-chloro-12-(3-methoxypropoxy)-10,10-dimethyl-2-oxo-2,7,8,9,10,10a-hexahydrodipyrido[2,1-a:1′,2′-c]phthalazine-3-carboxylic acid]	9900 nM	27 nM	–
COCCCOc1c(OC)cc2c(c1Br)[C@H]1CCC(C)(C)N1n1cc(C(=O)O)c(=O)cc1-2 [Example 40, (R)-13-bromo-11-methoxy-12-(3-methoxypropoxy)-3,3-dimethyl-8-oxo-2,3,8,13b-tetrahydro-1H-pyrido[2,1-a]pyrrolo[1,2-c]phthalazine-7-carboxylic acid]	8800 nM	360 nM	–
COc1cc2c(cc1Oc1ncccn1)[C@H]1CCC(C)(C)N1n1cc(C(=O)O)c(=O)cc1-2 [Example 41, (R)-11-methoxy-3,3-dimethyl-8-oxo-12-(pyrimidin-2-yloxy)-2,3,8,13b-tetrahydro-1H-pyrido[2,1-a]pyrrolo[1,2-c]phthalazine-7-carboxylic acid]	> 10000 nM	120 nM	–
COc1cc2c(cc1C#Cc1cncn1C)[C@H]1CCC(C)(C)N1n1cc(C(=O)O)c(=O)cc1-2 [Example 42, (R)-11-methoxy-3,3-dimethyl-12-((1-methyl-1H-imidazol-5-yl)ethynyl)-8-oxo-2,3,8,13btetrahydro-1H-pyrido[2,1-a]pyrrolo[1,2-c]phthalazine-7-carboxylic acid]	> 10000 nM	4.8 nM	–
COc1cc2c(cc1C#CC(C)(C)OC)[C@H]1CCC(C)(C)N1n1cc(C(=O)O)c(=O)cc1-2 [Example 43]	> 10000 nM	7.6 nM	–
COc1cc2c(cc1-c1cnn(C(F)F)c1)[C@H]1CCC(C)(C)N1n1cc(C(=O)O)c(=O)cc1-2 [Example 44, (R)-12-(1-(Difluoromethyl)-1H-pyrazol-4-yl)-11-methoxy-3,3-dimethyl-8-oxo-2,3,8,13b-tetrahydro-1H-pyrido[2,1-a]pyrrolo[1,2-c]phthalazine-7-carboxylic acid]	3000 nM	5.5 nM	–
COCCCOc1cc2c(cc1Cl)-c1cc(=O)c(C(=O)O)cn1N1[C@@H]2CC1(C)C [Example 46, (R)-10-chloro-11-(3-methoxypropoxy)-2,2-dimethyl-7-oxo-1,2,7,12b-tetrahydroazeto[2,1-a]pyrido[1,2-c]phthalazine-6-carboxylic acid and (S)-10-chloro-1-(3-methoxypropoxy)-2,2-dimethyl-7-oxo-1,2,7,12b-tetrahydroazeto[2,1-a]pyrido[1,2-c]phthalazine-6-carboxylic acid]	> 10000 nM	7.8 nM	–
CC1(COc2cc3c(cc2Cl)-c2cc(=O)c(C(=O)O)cn2N2[C@@H]3CCC2(C)C)COC1 [Example 49, (R)-11-chloro-3,3-dimethyl-12-((3-methyloxetan-3-yl)methoxy)-8-oxo-2,3,8,13b-tetrahydro-1H-pyrido[2,1-a]pyrrolo[1,2-c]phthalazine-7-carboxylic acid]	> 10000 nM	3.8 nM	–
COc1cc2c(cc1OCC1CC(F)(F)C1)[C@H]1CCC(C)(C)N1n1cc(C(=O)O)c(=O)cc1-2 [Example 50, (R)-12-((3,3-difluorocyclobutyl)methoxy)-11-methoxy-3,3-dimethyl-8-oxo-2,3,8,13b-tetrahydro-1H-pyrido[2,1-a]pyrrolo[1,2-c]phthalazine-7-carboxylic acid]	> 10000 nM	1 nM	–
CC1(C)CC[C@@H]2c3cc(OCC4CC(F)(F)C4)c(Cl)cc3-c3cc(=O)c(C(=O)O)cn3N21 [Example 54, (R)-11-chloro-12-((3,3-difluorocyclobutyl)methoxy)-3,3-dimethyl-8-oxo-2,3,8,13b-tetrahydro-1H-pyrido[2,1-a]pyrrolo[1,2-c]phthalazine-7-carboxylic acid]	5300 nM	0.75 nM	–
CC1(C)CC[C@@H]2c3cc(OCCCOC(F)(F)F)c(Cl)cc3-c3cc(=O)c(C(=O)O)cn3N21 [Example 55, (R)-11-chloro-3,3-dimethyl-8-oxo-12-(3-(trifluoromethoxy)propoxy)-2,3,8,13b-tetrahydro-1H-pyrido[2,1-a]pyrrolo[1,2-c]phthalazine-7-carboxylic acid]	6800 nM	3.7 nM	–
COc1cc2c(cc1OCCCOC(F)(F)F)[C@H]1CCC(C)(C)N1n1cc(C(=O)O)c(=O)cc1-2 [Example 58, (R)-11-methoxy-3,3-dimethyl-8-oxo-12-(3-(trifluoromethoxy)propoxy)-2,3,8,13b-tetrahydro-1H-pyrido[2,1-a]pyrrolo[1,2-c]phthalazine-7-carboxylic acid]	9300 nM	4.8 nM	–
COCCCOc1cc2c(cc1Cl)-c1cc(=O)c(C(=O)O)cn1N1C2CCC12CC2 (stereo not drawn) [Example 59, 11′-chloro-12′-(3-methoxypropoxy)-8′-oxo-1′,2′,8′,13b′-tetrahydrospiro[cyclopropane-1,3′-pyrido[2,1-a]pyrrolo[1,2-c]phthalazine]-7′-carboxylic acid]	–	6 nM	> 10000 nM
COc1cc2c(cc1OCCCOCC(F)(F)F)[C@H]1CCC(C)(C)N1n1cc(C(=O)O)c(=O)cc1-2 [Example 60, (R)-11-methoxy-3,3-dimethyl-8-oxo-12-(3-(2,2,2-trifluoroethoxy)propoxy)-2,3,8,13b-tetrahydro-1H-pyrido[2,1-a]pyrrolo[1,2-c]phthalazine-7-carboxylic acid]	> 10000 nM	1.2 nM	–
COc1cc2c(cc1OCCCOc1ccccc1)[C@H]1CCC(C)(C)N1n1cc(C(=O)O)c(=O)cc1-2 [Example 61]	6000 nM	0.94 nM	–
CCOCCCOc1cc2c(cc1OC)-c1cc(=O)c(C(=O)O)cn1N1[C@@H]2CCC1(C)C [Example 62, (R)-12-(3-ethoxypropoxy)-11-methoxy-3,3-dimethyl-8-oxo-2,3,8,13b-tetrahydro-1H-pyrido[2,1-a]pyrrolo[1,2-c]phthalazine-7-carboxylic acid]	> 10000 nM	0.67 nM	–
